From patent US8222404B2, “[1,2,4]Thiadiazin-3-yl acetic acid compound and methods of making the acetic acid compound” (Anadys Pharmaceuticals, Inc., priority 2008, dated 2012) come the findings set out here.

What is called EC50 is the midpoint of the concentration-response curve. Low values mean greater potency, high ones weaker potency.

The experiment concerns HCV Huh-luc/neo-ET replicon cells. The experiment is described as follows: Luciferase-Based HCV Replicon Assay (EC50 (1b)). It is filed as cell-based. The note with it: Hepatitis C virus, 72 hours exposure, luciferase activity. The method in brief:
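Replicon cells seeded, then exposed 24 h later to a compound concentration series in triplicate for 72 h. Luciferase luminescence read; % inhibition vs no-compound control, with 100 nM BILN-2061 as background, used to derive EC50 (1b).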
As to `CS(=O)(=O)NCc1csc2c1S(=O)(=O)N=C(C1=C(O)C3C4C=CC(C4)C3NC1=O)N2` (racemic) [Example 84, (rac-di-exo)-N-[3-(6-Hydroxy-4-oxo-3-aza-tricyclo[6.2.1.0^2,7]undeca-5,9-dien-5-yl)-1,1-dioxo-1,4-dihydro-1λ^6-thieno[2,3-e][1,2,4]thiadiazin-7-ylmethyl]-methanesulfonamide], the EC50 was > 1000 nM.

For `CC(C)C1CC(O)=C(C2=NS(=O)(=O)c3c(CNS(C)(=O)=O)csc3N2)C(=O)N1Cc1ccc(F)cc1` (racemic) [Example 8, rac-N-{3-[1-(4-Fluoro-benzyl)-4-hydroxy-6-isopropyl-2-oxo-1,2,5,6-tetrahydro-pyridin-3-yl]-1,1-dioxo-1,4-dihydro-1λ^6-thieno[2,3-e][1,2,4]thiadiazin-7-ylmethyl}-methanesulfonamide], the 50% effective concentration (EC50) is 20 to 100 nM. The result for `CS(=O)(=O)NCc1csc2c1S(=O)(=O)N=C(C1=C(O)CC(C3CCCC3)N(Cc3ccc(F)cc3)C1=O)N2` (racemic) [Example 9, rac-N-{3-[6-Cyclopentyl-1-(4-fluoro-benzyl)-4-hydroxy-2-oxo-1,2,5,6-tetrahydro-pyridin-3-yl]-1,1-dioxo-1,4-dihydro-1λ^6-thieno[2,3-e][1,2,4]thiadiazin-7-ylmethyl}-methanesulfonamide] reads 100 to 1000 nM; that for `Cc1cc(CN2C(=O)C(C3=NS(=O)(=O)c4c(CNS(C)(=O)=O)csc4N3)=C(O)[C@@H]3[C@@H]4CC[C@@H](C4)[C@@H]32)ccc1F` [Example 56, N-{3-[(1S,2S,7R,8R)-3-(4-Fluoro-3-methyl-benzyl)-6-hydroxy-4-oxo-3-aza-tricyclo[6.2.1.0^2,7]undec-5-en-5-yl]-1,1-dioxo-1,4-dihydro-1λ^6-thieno[2,3-e][1,2,4]thiadiazin-7-ylmethyl}-methanesulfonamide], 20 to 100 nM; that for `CS(=O)(=O)NCc1csc2c1S(=O)(=O)N=C(C1=C(O)C3CCCCC3N(Cc3ccc(F)cc3F)C1=O)N2` (racemic) [Example 118, (rac-cis)-N-{3-[1-(2,4-Difluoro-benzyl)-4-hydroxy-2-oxo-1,2,4a,5,6,7,8,8a-octahydro-quinolin-3-yl]-1,1-dioxo-1,4-dihydro-1λ^6-thieno[2,3-e][1,2,4]thiadiazin-7-ylmethyl}-methanesulfonamide], 100 to 1000 nM. `CS(=O)(=O)NCc1csc2c1S(=O)(=O)N=C(C1=C(O)[C@@H]3[C@@H]4CC[C@@H](C4)[C@@H]3N(Cc3ccc(F)cc3Cl)C1=O)N2` [Example 42, N-{3-[(1S,2S,7R,8R)-3-(2-Chloro-4-fluoro-benzyl)-6-hydroxy-4-oxo-3-aza-tricyclo[6.2.1.0^2,7]undec-5-en-5-yl]-1,1-dioxo-1,4-dihydro-1λ^6-thieno[2,3-e][1,2,4]thiadiazin-7-ylmethyl}-methanesulfonamide] registered an EC50 of 100 to 1000 nM. To `CS(=O)(=O)NCc1csc2c1S(=O)(=O)N=C(C1=C(O)C3C4CCC(CC4)C3N(CCC3CC3)C1=O)N2` (stereo not drawn) [Example 108, N-{3-[3-(2-Cyclopropyl-ethyl)-6-hydroxy-4-oxo-3-aza-tricyclo[6.2.2.0^2,7]dodec-5-en-5-yl]-1,1-dioxo-1,4-dihydro-1λ^6-thieno[2,3-e][1,2,4]thiadiazin-7-ylmethyl}-methanesulfonamide] belongs 5 to 20 nM; to `CS(=O)(=O)NCc1csc2c1S(=O)(=O)N=C(C1=C(O)C3CCCCC3N(Cc3ccsc3)C1=O)N2` (racemic) [Example 135, (rac-cis)-N-[3-(4-Hydroxy-2-oxo-1-thiophen-3-ylmethyl-1,2,4a,5,6,7,8,8a-octahydro-quinolin-3-yl)-1,1-dioxo-1,4-dihydro-1λ^6-thieno[2,3-e][1,2,4]thiadiazin-7-ylmethyl]-methanesulfonamide], > 1000 nM; to `CS(=O)(=O)NCc1csc2c1S(=O)(=O)N=C(C1=C(O)C3C4CC(C5CC54)C3N(Cc3ccc(F)cc3)C1=O)N2` (racemic) [Example 32, (rac-di-exo, di-exo)-N-{3-[3-(4-Fluoro-benzyl)-6-hydroxy-4-oxo-3-aza-tetracyclo[6.3.1.0^2,7.0^9,11]dodec-5-en-5-yl]-1,1-dioxo-1,4-dihydro-1λ^6-thieno[2,3-e][1,2,4]thiadiazin-7-ylmethyl}-methanesulfonamide], ≤ 5 nM. Take `CS(=O)(=O)NCc1csc2c1S(=O)(=O)N=C(C1=C(O)C3CCCCCC3N(Cc3ccc(F)cc3F)C1=O)N2` (racemic) [Example 122, (rac-cis)-N-{3-[1-(2,4-Difluoro-benzyl)-4-hydroxy-2-oxo-2,4a,5,6,7,8,9,9a-octahydro-1H-cyclohepta[b]pyridin-3-yl]-1,1-dioxo-1,4-dihydro-1λ^6-thieno[2,3-e][1,2,4]thiadiazin-7-ylmethyl}-methanesulfonamide]: the 50% effective concentration (EC50) is > 1000 nM. The result for `CS(=O)(=O)NCc1csc2c1S(=O)(=O)N=C(C1=C(O)[C@@H]3[C@H]4CC[C@H](C4)[C@@H]3NC1=O)N2` [Example 80, N-[3-((1R,2S,7R,8S)-6-Hydroxy-4-oxo-3-aza-tricyclo[6.2.1.0^2,7]undec-5-en-5-yl)-1,1-dioxo-1,4-dihydro-1λ^6-thieno[2,3-e][1,2,4]thiadiazin-7-ylmethyl]-methanesulfonamide] reads > 1000 nM; that for `CS(=O)(=O)NCc1csc2c1S(=O)(=O)N=C(C1=C(O)[C@@H]3CCC[C@@H]3N(Cc3ccc(F)cc3Cl)C1=O)N2` [Example 111, (4aR,7aS)-N-{3-[1-(2-Chloro-4-fluoro-benzyl)-4-hydroxy-2-oxo-2,4a,5,6,7,7a-hexahydro-1H-[1]pyrindin-3-yl]-1,1-dioxo-1,4-dihydro-1λ^6-thieno[2,3-e][1,2,4]thiadiazin-7-ylmethyl}-methanesulfonamide], 100 to 1000 nM.

In the case of `Cc1cc(CN2C(=O)C(C3=NS(=O)(=O)c4c(CNS(C)(=O)=O)csc4N3)=C(O)[C@@H]3C4CCC(CC4)[C@@H]32)ccc1F` [Example 52, N-{3-[(2S,7R)-3-(4-Fluoro-3-methyl-benzyl)-6-hydroxy-4-oxo-3-aza-tricyclo[6.2.2.0^2,7]dodec-5-en-5-yl]-1,1-dioxo-1,4-dihydro-1λ^6-thieno[2,3-e][1,2,4]thiadiazin-7-ylmethyl}-methanesulfonamide], the concentration for a half-maximal effect (EC50) is ≤ 5 nM. `CS(=O)(=O)NCc1csc2c1S(=O)(=O)N=C(C1=C(O)[C@@H]3[C@@H]4CC[C@@H](C4)[C@@H]3N(Cc3ccc(F)cc3F)C1=O)N2` [Example 40, N-{3-[(1S,2S,7R,8R)-3-(2,4-Difluoro-benzyl)-6-hydroxy-4-oxo-3-aza-tricyclo[6.2.1.0^2,7]undec-5-en-5-yl]-1,1-dioxo-1,4-dihydro-1λ^6-thieno[2,3-e][1,2,4]thiadiazin-7-ylmethyl}-methanesulfonamide] yielded an EC50 of 20 to 100 nM. The result for `CS(=O)(=O)NCc1csc2c1S(=O)(=O)N=C(C1=C(O)[C@@H]3CCC[C@@H]3N(Cc3ccccc3)C1=O)N2` [Example 124, (4aR,7aS)-N-[3-(1-Benzyl-4-hydroxy-2-oxo-2,4a,5,6,7,7a-hexahydro-1H-[1]pyrindin-3-yl)-1,1-dioxo-1,4-dihydro-1λ^6-thieno[2,3-e][1,2,4]thiadiazin-7-ylmethyl]-methanesulfonamide] reads 5 to 20 nM. The result for `CS(=O)(=O)NCc1csc2c1S(=O)(=O)N=C(C1=C(O)[C@@H]3[C@H]4CC[C@H](C4)[C@@H]3N(C3CCCCC3)C1=O)N2` [Example 97, N-[3-((1R,2S,7R,8S)-3-Cyclohexyl-6-hydroxy-4-oxo-3-aza-tricyclo[6.2.1.0^2,7]undec-5-en-5-yl)-1,1-dioxo-1,4-dihydro-1λ^6-thieno[2,3-e][1,2,4]thiadiazin-7-ylmethyl]-methanesulfonamide] reads 100 to 1000 nM; that for `CS(=O)(=O)NCc1csc2c1S(=O)(=O)N=C(C1=C(O)[C@@H]3C4CCC(CC4)[C@@H]3N(Cc3ccc(F)cc3)C1=O)N2` [Example 91, N-{3-[(2S,7R)-3-(4-Fluoro-benzyl)-6-hydroxy-4-oxo-3-aza-tricyclo[6.2.2.0^2,7]dodec-5-en-5-yl]-1,1-dioxo-1,4-dihydro-1λ^6-thieno[2,3-e][1,2,4]thiadiazin-7-ylmethyl}-methanesulfonamide], ≤ 5 nM. The compound `CC(C)CCN1C(=O)C(C2=NS(=O)(=O)c3c(CNS(C)(=O)=O)csc3N2)=C(O)C2C3CCC(O3)C21` (racemic) [Example 63, (rac-di-exo)-N-{3-[6-Hydroxy-3-(3-methyl-butyl)-4-oxo-11-oxa-3-aza-tricyclo[6.2.1.0^2,7]undec-5-en-5-yl]-1,1-dioxo-1,4-dihydro-1λ^6-thieno[2,3-e][1,2,4]thiadiazin-7-ylmethyl}-methanesulfonamide] displayed a concentration giving a half-maximal response (EC50) of 20 to 100 nM. `CC(C)CCN1C(=O)C(C2=NS(=O)(=O)c3c(CNS(C)(=O)=O)csc3N2)=C(O)[C@@H]2[C@H]3CC[C@H](C3)[C@@H]21` [Example 68, N-{3-[(1R,2S,7R,8S)-6-Hydroxy-3-(3-methyl-butyl)-4-oxo-3-aza-tricyclo[6.2.1.0^2,7]undec-5-en-5-yl]-1,1-dioxo-1,4-dihydro-1λ^6-thieno[2,3-e][1,2,4]thiadiazin-7-ylmethyl}-methanesulfonamide] came in with an EC50 of 5 to 20 nM.

On to `CS(=O)(=O)NCc1csc2c1S(=O)(=O)N=C(C1=C(O)C3C4CCC(C5CC54)C3N(Cc3ccc(F)cc3)C1=O)N2` (racemic) [Example 22, (rac-di-endo)-N-{3-[3-(4-Fluoro-benzyl)-6-hydroxy-4-oxo-3-aza-tetracyclo[6.3.2.0^2,7.0^9,11]tridec-5-en-5-yl]-1,1-dioxo-1,4-dihydro-1λ^6-thieno[2,3-e][1,2,4]thiadiazin-7-ylmethyl}-methanesulfonamide], for which the 50% effective concentration (EC50) was ≤ 5 nM. The result for `CS(=O)(=O)NCc1csc2c1S(=O)(=O)N=C(C1=C(O)C3CCCCCC3N(Cc3ccc(F)cc3Cl)C1=O)N2` (racemic) [Example 121, (rac-cis)-N-{3-[1-(2-Chloro-4-fluoro-benzyl)-4-hydroxy-2-oxo-2,4a,5,6,7,8,9,9a-octahydro-1H-cyclohepta[b]pyridin-3-yl]-1,1-dioxo-1,4-dihydro-1λ^6-thieno[2,3-e][1,2,4]thiadiazin-7-ylmethyl}-methanesulfonamide] reads > 1000 nM.
